From ChEMBL document CHEMBL1201862, “PubChem BioAssay data set” (2004)
Values joined by “and” are separate entries in the source; they are usually repeats but may differ in a detail not shown here. Equal entries are not always repeated. Active and inactive are the calls of the source.

Tests used:
H4 = assay: Luminescence Cell-Based Dose Response HTS to Identify Activators of 5'UTR Stem-Loop Driven Prion Protein mRNA Translation in H4 Neuroglioblastoma Cells. [Related pubchem assays: 1829 (Project Summary), 1814 (Primary HTS)]; format: functional; conditions: Homo sapiens
INS1 = assay: INS-1E survival protection against cytokine death – cell-based, luminescence, retest, dose response (AID 449756); format: functional; conditions: Rattus norvegicus;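 further: cell death triggered by IL-1 beta plus TNF-alpha plus IFN-gamma mixture; protective hits raise ATP signal compared with cytokine alone wells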
Cytochrome P450 2C19 = Cytochrome P450 2C19 (Homo sapiens, UniProt P33261); assay: Cytochrome panel assay with activity outcomes. Panel member name: p450-cyp2c19 Compounds with AC50 equal or less than 10 uM are considered active; format: functional; conditions: read-out: AC50
Chain of Cytochrome P450 2C19 (P33261 whole entry): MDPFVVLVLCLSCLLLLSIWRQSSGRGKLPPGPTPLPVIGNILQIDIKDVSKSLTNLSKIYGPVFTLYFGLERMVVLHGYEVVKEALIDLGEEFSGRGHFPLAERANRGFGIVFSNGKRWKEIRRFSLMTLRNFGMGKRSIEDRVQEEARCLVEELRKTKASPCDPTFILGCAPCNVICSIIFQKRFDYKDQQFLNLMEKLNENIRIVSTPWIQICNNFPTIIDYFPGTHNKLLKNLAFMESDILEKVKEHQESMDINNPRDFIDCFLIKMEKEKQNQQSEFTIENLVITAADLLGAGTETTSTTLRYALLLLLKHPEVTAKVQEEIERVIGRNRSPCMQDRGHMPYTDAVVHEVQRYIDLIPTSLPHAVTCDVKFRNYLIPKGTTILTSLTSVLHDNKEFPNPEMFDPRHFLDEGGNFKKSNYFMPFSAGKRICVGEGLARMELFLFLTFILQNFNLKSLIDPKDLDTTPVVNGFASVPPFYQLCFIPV

Cytochrome P450 2C9 = Cytochrome P450 2C9 (Homo sapiens, UniProt P11712)
Chain of Cytochrome P450 2C9 (P11712 whole entry): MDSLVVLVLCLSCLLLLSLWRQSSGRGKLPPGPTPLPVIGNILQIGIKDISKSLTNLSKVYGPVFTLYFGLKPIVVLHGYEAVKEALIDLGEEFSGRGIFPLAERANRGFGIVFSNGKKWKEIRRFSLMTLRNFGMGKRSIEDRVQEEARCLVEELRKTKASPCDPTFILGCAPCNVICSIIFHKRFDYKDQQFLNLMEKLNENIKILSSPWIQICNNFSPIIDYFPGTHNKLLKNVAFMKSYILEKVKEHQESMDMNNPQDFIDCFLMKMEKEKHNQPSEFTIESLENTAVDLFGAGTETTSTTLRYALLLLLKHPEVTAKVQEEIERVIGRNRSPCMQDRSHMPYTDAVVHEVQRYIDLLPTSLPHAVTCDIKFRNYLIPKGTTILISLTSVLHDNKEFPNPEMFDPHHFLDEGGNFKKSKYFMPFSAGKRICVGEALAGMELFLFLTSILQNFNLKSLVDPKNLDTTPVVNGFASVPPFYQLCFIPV

Cytochrome P450 3A4 = Cytochrome P450 3A4 (Homo sapiens, UniProt P08684);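 further: CYP3A4 tested as one member of a cytochrome P450 panel screen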
Chain of Cytochrome P450 3A4 (P08684 whole entry): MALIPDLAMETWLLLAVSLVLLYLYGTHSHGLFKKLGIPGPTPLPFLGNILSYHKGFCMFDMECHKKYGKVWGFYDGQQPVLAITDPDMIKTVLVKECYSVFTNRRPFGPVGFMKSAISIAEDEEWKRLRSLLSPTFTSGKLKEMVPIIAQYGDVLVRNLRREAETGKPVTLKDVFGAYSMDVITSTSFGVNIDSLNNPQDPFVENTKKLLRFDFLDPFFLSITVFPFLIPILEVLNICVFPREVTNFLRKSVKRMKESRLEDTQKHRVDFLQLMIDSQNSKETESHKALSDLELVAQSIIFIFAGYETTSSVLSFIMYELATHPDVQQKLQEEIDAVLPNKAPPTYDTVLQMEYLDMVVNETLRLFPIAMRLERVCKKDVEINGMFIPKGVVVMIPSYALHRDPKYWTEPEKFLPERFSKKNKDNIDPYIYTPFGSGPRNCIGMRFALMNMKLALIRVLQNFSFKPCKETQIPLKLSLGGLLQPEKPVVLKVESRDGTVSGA

[1] = test system: Streptococcus sp. 'group A'; assay: Streptococcus pyogenes SK(-)GAS viability under kanamycin – luminescence, BacTiterGlo, confirmation, counter-screen for streptokinase expression inhibitor project, dose response (AID 1900); format: functional, organism-based
Streptococcus = assay: GAS UMAA2166 growth inhibition – luminescence, BacTiterGlo, counter-screen for streptokinase expression inhibitor project, dose response (AID 1915); format: functional, organism-based;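 further: potency for reduction of bacterial viability or growth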
Paired box protein Pax-8 = Paired box protein Pax-8 (Homo sapiens, UniProt Q06710); assay: PAX8 transcriptional activity inhibition in RMG-I – RMG-I cells, luciferase, cherry-pick, dose response (AID 687027); format: functional, cell-based;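 further: luciferase reporter driven by Pax8 target thyroperoxidase promoter measured by SteadyGlo luminescence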
Chain of Paired box protein Pax-8 (Q06710 whole entry): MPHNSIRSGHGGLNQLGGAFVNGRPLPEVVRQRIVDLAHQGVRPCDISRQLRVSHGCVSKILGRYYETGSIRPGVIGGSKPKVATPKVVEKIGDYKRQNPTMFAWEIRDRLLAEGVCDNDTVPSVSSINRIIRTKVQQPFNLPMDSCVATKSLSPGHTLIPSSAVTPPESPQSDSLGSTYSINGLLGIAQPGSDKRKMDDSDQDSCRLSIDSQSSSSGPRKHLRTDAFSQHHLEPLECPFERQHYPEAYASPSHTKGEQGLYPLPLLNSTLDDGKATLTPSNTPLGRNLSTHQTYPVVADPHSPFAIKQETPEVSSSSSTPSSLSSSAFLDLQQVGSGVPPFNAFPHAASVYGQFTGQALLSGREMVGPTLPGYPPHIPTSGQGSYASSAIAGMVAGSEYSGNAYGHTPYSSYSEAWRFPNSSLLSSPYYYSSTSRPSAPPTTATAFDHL

[2] = NIH-3T3 fibroblast cytotoxicity, dose response, cytotoxicity control, cell-based, fluorescence, Alamar Blue, secondary assay (AID 2327); format: functional;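 further: NIH-3T3 mouse fibroblasts cultured with fluconazole at 8 µg/mL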
[3] = fluconazole-exposed Candida albicans growth modulators – fluorescence, retest, confirmation (AID 2467); format: functional, cell-based
[4] = biological target: T1, Ubiquitin-conjugating enzyme E2 N (Homo sapiens, UniProt P61088); format: functional;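 further: Dose-response confirmation in a TR-FRET assay detecting UBC13-driven polyubiquitin chain formation, inhibition measured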
T1 sequence (P61088 whole entry): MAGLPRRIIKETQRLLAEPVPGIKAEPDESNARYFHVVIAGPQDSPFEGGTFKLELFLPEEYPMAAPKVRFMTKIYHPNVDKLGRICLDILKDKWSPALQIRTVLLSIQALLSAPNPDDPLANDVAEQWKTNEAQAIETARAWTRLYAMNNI

[5] = Luminescence Cell-Based Dose Response HTS to Identify Activators of Luciferase Translation or Activity in H4 […] Cells. [Related pubchem assays: 1829 (Project Summary), 1814 (Primary HTS)]; format: functional
Cytochrome P450 1A2 = biological target: T2, Cytochrome P450 1A2 (Homo sapiens, UniProt P05177);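 further: PubChem cytochrome P450 panel assay, CYP1A2 panel member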
T2 sequence (P05177 whole entry): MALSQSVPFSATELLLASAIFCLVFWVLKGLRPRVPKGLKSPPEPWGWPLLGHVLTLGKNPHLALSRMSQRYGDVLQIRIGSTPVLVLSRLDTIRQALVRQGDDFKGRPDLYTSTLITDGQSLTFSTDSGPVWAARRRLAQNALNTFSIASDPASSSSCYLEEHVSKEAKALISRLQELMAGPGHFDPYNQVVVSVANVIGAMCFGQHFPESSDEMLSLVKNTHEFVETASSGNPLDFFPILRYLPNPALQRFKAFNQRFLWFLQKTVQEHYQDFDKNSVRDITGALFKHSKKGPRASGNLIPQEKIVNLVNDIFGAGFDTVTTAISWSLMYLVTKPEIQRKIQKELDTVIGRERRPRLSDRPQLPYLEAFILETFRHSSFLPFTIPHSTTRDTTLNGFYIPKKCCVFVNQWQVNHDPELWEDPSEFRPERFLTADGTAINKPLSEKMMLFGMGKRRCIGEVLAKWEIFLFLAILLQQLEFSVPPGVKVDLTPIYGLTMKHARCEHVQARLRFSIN

[6] = reduction of Shn3 3'UTR-driven luciferase in osteoblasts – cell-based, Clone20 osteoblasts, firefly luciferase, cherry-picked, dose response (AID 624132); format: functional;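 further: firefly luciferase luminescence from reporter carrying the Shn3 3'UTR in osteoblasts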
H9c2 = assay: cells; format: functional, cell-based; conditions: Rattus norvegicus, H9c2, Myocardium

## O=C(Nc1nccs1)c1cc2c(s1)-c1ccccc1OC2
H4
  EC50: > 120 µM (not active)

## Cc1cc(C(=O)c2ccc3ccccc3c2)c(C)o1
INS1
  AC50: > 260 µM (inactive)

## COc1ccc(S(=O)(=O)N(CC(=O)NCC2CCCO2)c2ccc(F)cc2)cc1OC (configuration not stated)
Cytochrome P450 2C19
  AC50: 10 µM (inconclusive)
Cytochrome P450 2C9
  AC50: 10 µM (inconclusive)

## CC(C)NC(=Nc1ccc(Cl)cc1)c1cccnc1
Cytochrome P450 2C19
  AC50: 6.31 µM (inconclusive)
Cytochrome P450 3A4
  AC50: 22.4 µM (inconclusive)

## N#C/C(=C\NC(=S)c1ccncc1)c1nc2ccccc2s1
Cytochrome P450 3A4
  AC50: 2.51 µM (inconclusive)
Cytochrome P450 2C9
  AC50: 6.31 µM (inconclusive)

## COCCNc1ccnc(-c2c(C)noc2C)n1
Cytochrome P450 3A4
  AC50: 31.6 µM (inconclusive)

## COc1ccc(-c2nc3cnc(Oc4ccccc4)nc3n(Cc3cccs3)c2=O)cc1
Cytochrome P450 2C9
  AC50: 1.26 µM (inconclusive)

## COc1ccc(Cc2nn3c(O)cc(C(C)C)nc3c2-c2ccccc2)cc1
[1]
  EC50: 1.78 µM (active)
Streptococcus
  EC50: 4.68 µM (active)

## CN1c2ccc(C#Cc3cccnc3)cc2[C@@H]2[C@@H](CCN2C(=O)Cc2cccnc2)[C@@H]1CO
Paired box protein Pax-8
  AC50: 57.2 µM (active)

## N#CCCn1cc(/C=N/O)c(-c2ccc(Cl)cc2)n1
Cytochrome P450 2C9
  AC50: 15.8 µM (inconclusive)

## O=C(N/N=C/c1ccc[nH]1)c1cc2ccccc2cc1O
[2]
  EC50: > 160 µM (inactive)
[3]
  EC50: > 38 µM (not active)

## COC(=O)C1=C(C)N(Cc2ccccc2)C(NCCc2ccccn2)=N[C@H]1c1cccc(C(F)(F)F)c1
[4]
  IC50: > 20 µM (inactive)

## Cc1ccc(N2C(=O)CSC2c2cccnc2)c(Cl)c1 (configuration not stated)
INS1
  AC50: > 260 µM (inactive)

## COc1cccc(N2CCN(C(=O)Nc3ccc4c(c3)NC(=O)CO4)CC2)c1
Cytochrome P450 2C9
  AC50: 12.6 µM (inconclusive)

## CCCn1c(=N)n(CC(=O)c2ccc([N+](=O)[O-])cc2)c2ccccc21
[2]
  EC50: 10.5 µM (active)
[3]
  EC50: > 38 µM (not active)

## COC(=O)c1cc(OC)c(OC)cc1NC(=O)CSc1ccccc1
Cytochrome P450 3A4
  AC50: 15.8 µM (inconclusive)
Cytochrome P450 2C9
  AC50: 20 µM (inconclusive)

## Oc1ccc(Cl)cc1Nc1nc(NCC2CCCO2)c2ccccc2n1 (configuration not stated)
[4]
  IC50: > 20 µM (inactive)

## COc1ccc(/C=C2\OC(=O)c3c(OC)cccc32)cc1OC
[5]
  EC50: 7.38 µM (active)
H4
  EC50: 22.4 µM (active)
Cytochrome P450 3A4
  AC50: 10 µM (inconclusive)

## CCC/C=C(\CCC)C(NS(=O)(=O)c1ccc(C(F)(F)F)cc1)c1ccc(-c2ccccc2)cc1 (configuration not stated)
Cytochrome P450 3A4
  AC50: 3.98 µM (inconclusive)

## CCCCn1c(SC(C)C(N)=O)nc2cc(C(=O)OC)ccc2c1=O (configuration not stated)
Cytochrome P450 2C19
  AC50: 3.55 µM (inconclusive)
Cytochrome P450 2C9
  AC50: 8.91 µM (inconclusive)

## O=C(c1ccc(-c2nnc(Nc3ccccc3)c3ccccc23)cc1)N1C[C@H]2C[C@H](C1)c1cccc(=O)n1C2
Cytochrome P450 1A2
  AC50: 14.1 µM (inconclusive)
Cytochrome P450 2C9
  AC50: 2 µM (inconclusive)

## O=C(Nc1nnc(C2CC2)s1)c1ccc(S(=O)(=O)c2ccccc2)cc1
Cytochrome P450 2C19
  AC50: 7.08 µM (inconclusive)
Cytochrome P450 2C9
  AC50: 0.794 µM (inconclusive)

## O=C(Nc1ccc(Cl)c(Cl)c1)N[C@@H]1CC[C@H](CCn2cc(C3CCCCC3)nn2)O[C@H]1CO
Paired box protein Pax-8
  AC50: 19.7 µM (active)

## C/C(CC(=O)NCc1ccco1)=N\NC(=O)Cc1ccc(Cl)cc1
Cytochrome P450 2C19
  AC50: 22.4 µM (inconclusive)
Cytochrome P450 1A2
  AC50: 20 µM (inconclusive)
Cytochrome P450 3A4
  AC50: 15.8 µM (inconclusive)
Cytochrome P450 2C9
  AC50: 25.1 µM (inconclusive)

## CCc1ccc(C(=O)NNc2ccc(F)cc2F)cc1
[2]
  EC50: > 150 µM (inactive)
[3]
  EC50: > 38 µM (not active)

## COc1ccc(CN2CN=C(Nc3nc4ccccc4s3)NC2)cc1
Cytochrome P450 3A4
  AC50: 10 µM (inconclusive)
Cytochrome P450 2C9
  AC50: 20 µM (inconclusive)

## OCCSCc1cc(Cl)cc(Cl)c1O
Cytochrome P450 2C9
  AC50: 3.98 µM (inconclusive)

## Cc1cc(C)cc(-n2nnnc2-c2cn(C)nc2C(F)(F)F)c1
Cytochrome P450 3A4
  AC50: 15.8 µM (inconclusive)

## CN(C)CC(O)COc1cc2ccccc2cc1C(=O)N1CCCCC1 (configuration not stated)
[2]
  EC50: > 150 µM (inactive)

## CCN(CC)c1ccc(/C=C/C(=O)c2cccnc2)cc1
[2]
  EC50: > 150 µM (inactive)
[3]
  EC50: 0.065 µM (active)

## CC(=O)O[C@H]1CC[C@H]2[C@@H]3CC[C@H]4[C@@H](O)[C@H](O)CC[C@]4(C)[C@H]3CC[C@]12C
[6]
  AC50: > 70 µM (inactive)

## COCCn1c(=O)c(-c2ccc(F)cc2)nc2cnc(OCc3ccccc3)nc21
Cytochrome P450 2C19
  AC50: 10 µM (inconclusive)
Cytochrome P450 3A4
  AC50: 12.6 µM (inconclusive)
Cytochrome P450 2C9
  AC50: 20 µM (inconclusive)

## COc1ccc(NC(=O)CCOc2cc(C)ccc2C)cc1S(=O)(=O)N1CCCCC1
[6]
  AC50: 10.4 µM (active)

## COc1ccc(/C=N/NC(=O)c2ccc(-c3ccccc3)cc2)cc1O
[2]
  EC50: > 150 µM (inactive)
[3]
  EC50: 0.036 µM (active)

## Cc1ccc(-c2nnc(N(C)C(=O)c3cccnc3)s2)cc1
Cytochrome P450 2C19
  AC50: 3.16 µM (inconclusive)
Cytochrome P450 1A2
  AC50: 10 µM (inconclusive)
Cytochrome P450 3A4
  AC50: 17.8 µM (inconclusive)

## CN(C)c1nc(N)c(C(=O)NC(=N)N)nc1Cl
Cytochrome P450 3A4
  AC50: 10 µM (inconclusive)

## COc1cc(-c2nnc(NC(=O)c3ccc(S(=O)(=O)N4CCOCC4)cc3)o2)cc(OC)c1OC
[2]
  EC50: > 160 µM (inactive)
[3]
  EC50: 5.71 µM (active)

## COC(=O)[C@@H]1[C@@H](O)[C@@]2(O)c3c(OC)cc(OC)cc3O[C@@]2(c2ccc(OC)cc2)[C@H]1c1ccccc1
Cytochrome P450 3A4
  AC50: 10 µM (inconclusive)

## COc1ccc(C2CC(C(F)(F)F)n3nc(C(=O)N(C)Cc4cn(C)nc4C)c(Cl)c3N2)cc1 (configuration not stated)
Cytochrome P450 2C19
  AC50: 17.8 µM (inconclusive)
Cytochrome P450 2C9
  AC50: 17.8 µM (inconclusive)

## COc1ccc(NC(=O)CSc2nc(O)cc(=O)n2-c2ccc(OC)cc2)cc1
[1]
  EC50: 13.9 µM (active)
Streptococcus
  EC50: 26 µM (inconclusive)

## C=CCN1CC[C@@]23c4c5ccc(O)c4O[C@H]2/C(=N\N=C2/CC[C@@]4(O)[C@H]6Cc7ccc(O)c8c7[C@@]4(CCN6CC=C)[C@@H]2O8)CC[C@]3(O)[C@@H]1C5
Cytochrome P450 3A4
  AC50: 31.6 µM (inconclusive) and 25.1 µM (inconclusive)

## Cc1nnc(SCC2=C(C(=O)O)N3C(=O)C(NC(=O)Cn4ncc(Cl)c4C)C3SC2)s1 (configuration not stated)
[1]
  EC50: < 0.06 µM (active)
Streptococcus
  EC50: 0.117 µM (active)

## C[C@@]1(C(NC(=O)Cc2ccccc2)c2ccc(-c3ccccc3)cc2)C[C@H]1C1CCCCC1 (some centres not stated)
Cytochrome P450 3A4
  AC50: 15.8 µM (inconclusive)

## Oc1ccc(Cl)cc1C1=NNC(c2ccc(Cl)cc2)C1 (configuration not stated)
[1]
  EC50: 2.78 µM (active)
Streptococcus
  EC50: 5.5 µM (active)

## COCCCn1c(=S)[nH]c2ncccc2c1=O
Cytochrome P450 2C19
  AC50: 0.501 µM (inconclusive)
Cytochrome P450 2C9
  AC50: 0.00562 µM (inconclusive)

## CS(=O)(=O)N1CCC2(CCCN(C(=O)Nc3cccc(C#N)c3)C2)CC1
Cytochrome P450 3A4
  AC50: 25.1 µM (inconclusive)

## COc1ccc(-c2csc(NC(=O)c3ccc(OCC(=O)N4CCOCC4)c(OC)c3)n2)cc1OC
H9c2
  IC50: > 79 µM (inactive)

## COc1ccc(C(=O)NN/C=C/C(=O)c2ccc(Br)cc2)cc1
H9c2
  IC50: > 79 µM (inactive)
